{"source": "patent US5869482A", "about": "“Dipyridio[2,3-b:3',2'-] azepines and their use in the prevention or treatment of HIV infection” (priority 1997, dated 1999)", "key": {"HIV-1 RT (K103N) mutant": {"target": "T1, HIV-1 RT (K103N) mutant (Human immunodeficiency virus type 1 group M subtype B, UniProt P03367, K702N)", "T1 construct": "Reverse transcriptase enzyme from the LAV strain; made in house; host or cells: E. coli JM109 with clone pBRTprtl+ in vector pIBI21 (stated for the wild-type enzyme; inferred for the K103N mutant)", "assay": "biochemical", "parameters": "species or system Human Immunodeficiency Virus (HIV-1)", "details": "1 μM compound; RNA-dependent DNA polymerase activity; read-out: RT (K103N) % inh. (1 μM)"}, "[1]": {"target": "HIV-1 reverse transcriptase, wild type (WT) (Human immunodeficiency virus type 1 (BRU ISOLATE), UniProt P03367)", "assay": "Reverse Transcriptase (RT) assay, wild type enzyme", "format": "biochemical, Human Immunodeficiency Virus (HIV-1), LAV strain", "details": "1 μM compound; RNA-dependent DNA polymerase activity; read-out: RT (WT) % inh. (1 μM)", "source_text": "Utilizing the Reverse Transcriptase (RT) Assay described below, compounds can be tested for their ability to inhibit the RNA-dependent DNA polymerase activity of HIV-1 RT.\nAmong the enzymes for which Human Immunodeficiency Virus (HIV-1) encodes is a reverse transcriptase (1), so-named because it transcribes a DNA copy from an RNA template. This activity can be quantitatively measured in a cell-free enzyme assay, which has been previously described (2), and is based upon the observation that reverse transcriptase is able to use a synthetic template [poly r(C) primed with oligo d(G)] to transcribe a radio-labelled, acid-precipitable DNA strand utilizing ^3 H-dGTP as a substrate. The assay described below utilizes the wild type (WT) enzyme, which is the predominant form of the enzyme observed in patients infected with HIV-1.\nReverse transcriptase enzyme from the LAV strain of Human Immunodeficiency Virus (HIV-1) (1) was isolated from the bacterial strain JM109 (3) expressing the DNA clone pBRTprtl+ (2) which is under the control of the lac promotor in the expression vector pIBI21 (4). […] At that time the repressor inhibitor IPTG (isopropyl β-D-thiogalactopyranoside) is added to 0.5 mM, and the mixture is incubated for 2 additional hours. […] The cells are lysed by the addition of 0.2% NP-40 and brought to 1M NaCl. […]"}, "HIV-1 RT (P236L) mutant": {"target": "T2, HIV-1 RT (P236L) mutant (Human immunodeficiency virus type 1 (BRU ISOLATE), UniProt P03367, P835L)", "T2 construct": "P236L mutant", "format": "biochemical, Human Immunodeficiency Virus (HIV-1)", "details": "1 μM compound; RNA-dependent DNA polymerase activity"}, "HIV-1 RT (L100I) mutant": {"target": "T3, HIV-1 RT (L100I) mutant (Human immunodeficiency virus type 1 (BRU ISOLATE), UniProt P03367, L699I)", "T3 construct": "L100I mutant", "format": "biochemical, Human Immunodeficiency Virus (HIV-1)", "details": "1 μM compound; RNA-dependent DNA polymerase activity"}, "HIV-1 RT (Y181C) mutant": {"target": "T4, HIV-1 RT (Y181C) mutant (Human immunodeficiency virus type 1 (BRU ISOLATE), UniProt P03367, Y780C)", "T4 construct": "Y181C by site-directed mutagenesis", "assay": "biochemical", "parameters": "species or system Human Immunodeficiency Virus (HIV-1)", "details": "1 μM compound; RNA-dependent DNA polymerase activity; read-out: RT (Y181C) % inh. (1 μM)"}}}
{"compound": "CCN1c2ncccc2C=Cc2cccnc21", "note": "[Example 1, 11-Ethyl-dipyrido[2,3-b:3',2'-f]azepine]", "values": [{"measurement": "inhibition at 1 µM", "setting": "HIV-1 RT (K103N) mutant", "value": 73, "unit": "%"}, {"measurement": "inhibition at 1 µM", "setting": "[1]", "value": 98, "unit": "%"}, {"measurement": "RT (P236L) % inh. (1 μM)", "setting": "HIV-1 RT (P236L) mutant", "value": 99, "unit": "%"}, {"measurement": "RT (L100I) % inh. (1 μM)", "setting": "HIV-1 RT (L100I) mutant", "value": 81, "unit": "%"}, {"measurement": "inhibition at 1 µM", "setting": "HIV-1 RT (Y181C) mutant", "value": 53, "unit": "%"}]}
{"compound": "C1=Cc2cccnc2N(C2CC2)c2ncccc21", "note": "[Example 2, 11-Cyclopropyl-dipyrido[2,3-b:3',2'-f]azepine]", "values": [{"measurement": "inhibition at 1 µM", "setting": "HIV-1 RT (K103N) mutant", "value": 55, "unit": "%"}, {"measurement": "inhibition at 1 µM", "setting": "[1]", "value": 97, "unit": "%"}, {"measurement": "RT (P236L) % inh. (1 μM)", "setting": "HIV-1 RT (P236L) mutant", "value": 98, "unit": "%"}, {"measurement": "RT (L100I) % inh. (1 μM)", "setting": "HIV-1 RT (L100I) mutant", "value": 80, "unit": "%"}, {"measurement": "inhibition at 1 µM", "setting": "HIV-1 RT (Y181C) mutant", "value": 41, "unit": "%"}]}
